In PubChem BioAssay AID1259407 (Chemical Carcinogenesis Research Information System (CCRIS), 2018):
The source made the active and inactive calls. The rule behind the calls is not given here.

Tested on: CCRIS mutagenicity, Ames/micronucleus/aberration tests
Test: CCRIS mutagenicity studies
Details: Test System: AMES SALMONELLA TYPHIMURIUM, Method: PREINCUBATION
[1] = Strain/Indicator: TA97, Metabolic Activation: NONE
[2] = Strain/Indicator: TA98, Metabolic Activation: NONE
[3] = Strain/Indicator: TA100, Metabolic Activation: NONE
[4] = Strain/Indicator: TA1535, Metabolic Activation: NONE

Measured: mutagenic call

CCCCCCCCCCCCCCCCC1CO1 (configuration not stated)
inactive: Strain/Indicator: TA97, Metabolic Activation: HAMSTER, LIVER, S-9, AROCLOR 1254 (10%) inactive; negative | Strain/Indicator: TA97, Metabolic Activation: HAMSTER, LIVER, S-9, AROCLOR 1254 (30%) inactive; negative | [1] inactive; negative | Strain/Indicator: TA97, Metabolic Activation: RAT, LIVER, S-9, AROCLOR 1254 (10%) inactive; negative | Strain/Indicator: TA97, Metabolic Activation: RAT, LIVER, S-9, AROCLOR 1254 (30%) inactive; negative | Strain/Indicator: TA98, Metabolic Activation: HAMSTER, LIVER, S-9, AROCLOR 1254 (10%) inactive; negative | Strain/Indicator: TA98, Metabolic Activation: HAMSTER, LIVER, S-9, AROCLOR 1254 (30%) inactive; negative | [2] inactive; negative | Strain/Indicator: TA98, Metabolic Activation: RAT, LIVER, S-9, AROCLOR 1254 (10%) inactive; negative | Strain/Indicator: TA98, Metabolic Activation: RAT, LIVER, S-9, AROCLOR 1254 (30%) inactive; negative | Strain/Indicator: TA100, Metabolic Activation: HAMSTER, LIVER, S-9, AROCLOR 1254 (10%) inactive; negative | Strain/Indicator: TA100, Metabolic Activation: HAMSTER, LIVER, S-9, AROCLOR 1254 (30%) inactive; negative | [3] inactive; negative | Strain/Indicator: TA100, Metabolic Activation: RAT, LIVER, S-9, AROCLOR 1254 (10%) inactive; negative | Strain/Indicator: TA100, Metabolic Activation: RAT, LIVER, S-9, AROCLOR 1254 (30%) inactive; negative | Strain/Indicator: TA1535, Metabolic Activation: HAMSTER, LIVER, S-9, AROCLOR 1254 (10%) inactive; negative | Strain/Indicator: TA1535, Metabolic Activation: HAMSTER, LIVER, S-9, AROCLOR 1254 (30%) inactive; negative | [4] inactive; negative | Strain/Indicator: TA1535, Metabolic Activation: RAT, LIVER, S-9, AROCLOR 1254 (10%) inactive; negative | Strain/Indicator: TA1535, Metabolic Activation: RAT, LIVER, S-9, AROCLOR 1254 (30%) inactive; negative | Strain/Indicator: TA1537, Metabolic Activation: HAMSTER, LIVER, S-9, AROCLOR 1254 (10%) inactive; negative | Strain/Indicator: TA1537, Metabolic Activation: HAMSTER, LIVER, S-9, AROCLOR 1254 (30%) inactive; negative | Strain/Indicator: TA1537, Metabolic Activation: NONE inactive; negative | Strain/Indicator: TA1537, Metabolic Activation: RAT, LIVER, S-9, AROCLOR 1254 (10%) inactive; negative | Strain/Indicator: TA1537, Metabolic Activation: RAT, LIVER, S-9, AROCLOR 1254 (30%) inactive; negative

NC(=O)c1ccccc1
inactive: Strain/Indicator: TA97, Metabolic Activation: HAMSTER, LIVER, S-9, AROCLOR 1254 (10 OR 30%) inactive; negative | [1] inactive; negative | Strain/Indicator: TA97, Metabolic Activation: RAT, LIVER, S-9, AROCLOR 1254 (10 OR 30%) inactive; negative | Strain/Indicator: TA98, Metabolic Activation: HAMSTER, LIVER, S-9, AROCLOR 1254 (10 OR 30%) inactive; negative | [2] inactive; negative | Strain/Indicator: TA98, Metabolic Activation: RAT, LIVER, S-9, AROCLOR 1254 (10 OR 30%) inactive; negative | Strain/Indicator: TA100, Metabolic Activation: HAMSTER, LIVER, S-9, AROCLOR 1254 (10 OR 30%) inactive; negative | [3] inactive; negative | Strain/Indicator: TA100, Metabolic Activation: RAT, LIVER, S-9, AROCLOR 1254 (10 OR 30%) inactive; negative | Strain/Indicator: TA1535, Metabolic Activation: HAMSTER, LIVER, S-9, AROCLOR 1254 (10 OR 30%) inactive; negative | [4] inactive; negative | Strain/Indicator: TA1535, Metabolic Activation: RAT, LIVER, S-9, AROCLOR 1254 (10 OR 30%) inactive; negative
